# Laboratory results as given in patent US20230277553A1, “THERAPEUTIC COMPOSITION OF CURE-PRO COMPOUNDS FOR TARGETED DEGRADATION OF BET DOMAIN PROTEINS, AND METHODS OF MAKING AND USAGE” (CORNELL UNIVERSITY, priority 2020, published 2023).
# Entries after “also recorded” stand apart in the source; their conditions may differ.
# Legend:
# Type in all cases: cell-based
# BRD4 [1] = target: T1, BRD4 (Homo sapiens, UniProt O60885); assay: Summary of BRD4 degradation by CURE-PRO pairs, estimated from Western Blot or WES (Proteinsimple); set-up: endogenous in cells; conditions: Table 3; aromatic 1,2-diol-containing VHL ligand, second drawing (8305)
# Source text: A black check mark indicates efficacy of 30% to 70% or higher protein degradation.
# BRD4 [2] = target: T1, BRD4; assay: CURE-PRO-mediated BRD4 degradation with VHL ligands, WES (ProteinSimple), MCF7 cells; set-up: endogenous in cells
# Description: (§1) All cell lines were purchased from ATCC or DSMZ and grown at 37° C. with 5% CO2. Human HeLa cells were cultured in complete growth medium (Dulbecco's modified Eagle's medium (DMEM) supplemented with 10% FBS); MCF7 cells were cultured in complete growth medium (Dulbecco's modified Eagle's medium (DMEM) supplemented with 10% FBS and 0.01 mg/ml human recombinant insulin (Sigma Aldrich); Namalwa and MOLM-13 cells were cultured in complete growth medium (RPMI 1640 medium supplemented with 10% FBS); MV-4-11 were cultured in complete growth medium (Iscove's Modified Dulbecco's medium, supplemented with 10% FBS); HCT116 cells were cultured in complete growth medium (McCoy's 5a Medium supplemented with 10% FBS). For cellular degradation of BRD4 studies, cells were seeded in a 12-well plate at 70-80% confluency, allowed to attach overnight, and incubated with the indicated compounds for the indicated time. When indicated, a 15-minute pretreatment with 10 μM pomalidomide, 10 μM VHL298, 10 μM Nutlin3a, 1 μM MG-132 or 1 μM Carfilzomib was performed before the addition of CURE-PROs. For washout studies, after CURE-PRO treatment, media was aspirated and incubated with complete medium for the indicated time before lysis.
# WES Simple analysis was performed on WES system (ProteinSimple-Biotechne) according to the manufacturer's instructions. Total protein concentrations of cell lysates were determined by the Pierce BCA kit (Thermo Fisher). 3 μL of 0.3 μg/μL of the protein lysate was loaded onto a 12- to 230-kDa WES assay plate (ProteinSimple) where 300 nL sample was withdrawn through a capillary, subjected to electrophoretic separation of proteins by size, and followed by the simultaneous, HRP-based detection of proteins using the Anti-Rabbit Detection Module (Proteinsimple: #DM-001). The electropherograms were checked then the automatic peak detection was manually corrected if it was required.
# MCF7 cells (3×10^6) were treated for 4-24 hours continually (FIG. 72), or treated for 4h, washed and incubated for a further 4-24 h with the compounds solubilized in DMSO. Compounds were added at 10 μM each. Cells were washed, lysed, and clarified by centrifugation. The total protein concentration was quantified by the BCA method (ThermoFisher Sciences). Standardized protein samples were electrophoresed and imaged as described in the WES Proteinsimple section above. FIG. 69 depicts the CURE-PRO-mediated BRD4 degradation for the BRD-E50 monomer, and VHL ligand, 8305.
# MCF7 cells (3×10^6) were treated for 24 hours with the compounds solubilized in DMSO. CURE-PRO monomers were added at 10 μM each and the proteasomal inhibitors at 1 μM. Standardized protein samples were electrophoresed and imaged as described in the WES Proteinsimple section above. FIGS. 73 and 75 depicts the dependence of the proteasome for CURE-PRO-mediated BRD4 degradation.
# MCF7 cells (3×10^6) were treated for 24 hours with the compounds solubilized in DMSO. CURE-PRO monomers were added at 10 μM. FIG. 74 depicts the CURE-PRO-mediated BRD4 degradation for the BRD-E50 monomer, and VHL ligand, 8305 combined in a 1:1 ratio after 24 h.
# caspase 3/7 [3] = assay: Caspase-Glo 3/7 assay, Namalwa cells
# Description: (§2) Caspase-glo® assay (Promega) was conducted following the manufacturer's recommendations. Cells were seeded at a density of 5000 cells/well in a white 96 well plates (Corning, #3917) in a total volume of 100 μl with respective monomers, combinations of BRD ligands together with E3 ligase ligands or vehicle control treatment. After a 24 h incubation, 100 μl of the […] substrate was added per well and luminescence was read on a Spectramax M5 (Molecular Devices).
# Namalwa cells (5×104) were treated for 24 hours with the compounds solubilized in DMSO. FIG. 57 is a bar graph depiction of fold increase of apoptosis assessed via caspase 3/7 activity using the Caspase-glo assay (Promega) described above.
# (§3) Molm-13 (FIG. 76A) or Namalwa (FIG. 76B) cells (5×10^4) were treated for 24 hours with the compounds solubilized in DMSO in white 96 well plates (10 nM-10 μM solubilized in DMSO). FIG. 76 is a bar graph depiction of fold increase of apoptosis assessed via caspase 3/7 activity using the Caspase-glo assay (Promega) described above.
# caspase 3/7 [4] = assay: Caspase-Glo 3/7 assay, Molm-13 cells
# Description: as §2, §3
# BRD4 [5] = target: T1, BRD4; assay: CURE-PRO-mediated BRD4 degradation with VHL ligands, Western blot, MCF7 cells; set-up: endogenous in cells; conditions: MCF7, 24 h
# Description: as §1
# HeLa, MCF7, or HCT116 cells (2.5-3×10^6) were treated for 24 hours with the indicated compounds solubilized in DMSO. The cells were washed in ice-cold PBS and were then lysed in RIPA lysis buffer (150 mM NaCl, 5 mM EDTA, 1% NP-40, 0.5% sodium deoxycholate, 0.1% SDS, 50 mM Tris, pH 8.0.) with Roche protease inhibitor complete cocktail and phosphatase inhibitors (10 mM sodium fluoride, 10 mM sodium pyrophosphate, 1 mM sodium orthovanadate and 20 mM β-glycerophosphate). The total protein concentrations were determined by Bradford Protein Assay and 10-20 μg of protein was loaded onto 4-15% Tris-Glycine gradient gels (Biorad). After standard gel electrophoresis, the separated proteins were transferred to PVDF membrane by wet transfer. The immunoblots were then blocked for 1 hour in 5% skim milk in TBST or 5% BSA in TBST, according to manufacturer's instructions, before an overnight incubation at 4° C. with indicated antibodies and membranes. Membranes were then incubated with the appropriate horseradish peroxidase-conjugated secondary antibodies (1:5,000 dilution) for 1 h at room temperature and the bands were visualized using the Clarity Max Western ECL Substrate (Biorad) and the ChemiDoc Imaging System (Biorad). Signal was detected with ECL Western Blotting Substrate (Pierce) and X-ray film processed with a Konica SRX-101 X-ray film processor or captured by Bio-Rad's Chemidoc Imaging system.
# MCF7 cells (3×10^6) were treated for 24 h with the compounds solubilized in DMSO. Compounds were added at 100 nM-10 μM. […]
# Molm-13 cells = assay: CellTiter-Glo cell viability, Molm-13 cells; conditions: Molm-13, 24 and 72 h
# Description: CellTiter-Glo® 2.0 Cell Viability Assay (Promega) was carried out following the manufacturer's recommendations. Cells were seeded at a density of 1000 cells/well in a white 96 well plates (Corning, #3917) in a total volume of 100 μl with respective monomers, combinations of BRD ligands together with E3 ligase ligands or vehicle control treatment. After a 72 h incubation, 100 ul of the CellTiter-Glo® substrate was added per well and luminescence was read on a Spectramax M5 (Molecular Devices). Dose-response curves were generated using Graphpad Prism software.
# Molm-13 cells (1×10^4) were treated for 24 (FIG. 77A) or 72 (FIG. 77B) hours were treated in white 96 well plates with the compounds (10 nM-10 μM solubilized in DMSO). After indicated times cell viability was assessed using the CellTiter-Glo® Luminescent Cell Viability Assay (Promega) and the signal detected on a SpectraMax M5 (Molecular Devices).
structure (smiles),measurement,setting,value
"CCNC(=O)C[C@@H]1N=C(c2ccc(Cl)cc2)c2cc(B(O)O)ccc2-n2c(C)nnc21 [BRD-E50, ((4S)-6-(4-chlorophenyl)-4-(2-(ethylamino)-2-oxoethyl)-1-methyl-4H-benzo[f][1,2,4]triazolo[4,3-a][1,4]diazepin-8-yl)boronic acid]",Degradation of BRD4 in combination with VHL ligand [drawing 397],BRD4 [1],✓ (A black check mark indicates efficacy of 30% to 70% or higher protein degradation)
same,"BRD4 degradation, monomer alone (WES)","BRD4 [2]; MCF7, 10 μM",no degradation of BRD4
same,"BRD4 degradation, with VHL ligand 8304 (WES)","BRD4 [2]; MCF7, 10 μM each",No degradation is noted
same,"BRD4 degradation, with VHL ligand 8305 (WES)","BRD4 [2]; MCF7, 10 μM each, 1:1 with 8305, 4-24 h, with washout where stated","directs degradation of BRD4 as early as 4 h, with sustained degradation 24 h after wash out; also recorded: marked BRD4 degradation after 4h with sustained degradation for up to 8h after drugs are washed out"
same,BRD4 degradation with 8305 after VHL298 preincubation,"BRD4 [2]; MCF7, 24 h, 10 μM",No degradation is noted
same,"Caspase activity, co-treatment with VHL298",caspase 3/7 [3],does not increase caspase activity
same,"Caspase 3/7 activation, co-dosed with VHL ligand 8305","caspase 3/7 [3]; 24 hours, 1:1 with 8305, 10 nM-10 μM",marked caspase activation; also recorded: demonstrates activation of caspase 3/7
same,"Caspase activity, co-treatment with VHL298",caspase 3/7 [4]; MOLM13,does not increase caspase activity
same,"Caspase 3/7 activation, co-dosed with VHL ligand 8305","caspase 3/7 [4]; Molm-13, 24 hours, 1:1 with 8305, 10 nM-10 μM",marked caspase activation; also recorded: demonstrates activation of caspase 3/7
same,"BRD4 degradation, with VHL ligand 8304 (Western blot)","BRD4 [5]; 1:1 with 8304, 1-10 μM",but not when VHL ligand 8304 is co-incubated; also recorded: no degradation is noted
same,"BRD4 degradation, with VHL ligand 8305 (Western blot)","BRD4 [5]; 1:1 with 8305, 100 nM-10 μM",there is degradation of BRD4; also recorded: marked BRD4 degradation
same,"Cell viability, co-treatment with VHL298",Molm-13 cells,decreases levels of cell viability to similar levels of BRD-E50 treatment alone
same,"Loss of cell viability, co-dosed with VHL ligand 8305","Molm-13 cells; 1:1 with 8305, 10 nM-10 μM",greater loss of cell viability; also recorded: marked loss in cell viability
